According to EP1948196B1, “USE OF TETRAORGANOSILICON COMPOUNDS” (Salama, Zoser B., priority 2005, dated 2007):
Converted amounts (≈) assume the structure as drawn. Like-named read-outs stand apart in the source and are kept apart here.

Tests used:
[1] = system: Panc1 Pankreaskrebszellen; experiment: subG1 apoptotic fraction, propidium iodide, flow cytometry; format: cell-based; settings: 50 µg/ml, 4 Tage
Procedure: (§1) Die Zellen (IEC6 mausartige Enterozyten; Panc1 Pankreaskrebszellen; Colo205 Kolonkarzinom) wurden mit 50 µg/ml Silanen inkubiert und nach 4-tägiger Aussetzung auf DNA eingefärbt (Propidiumiodid). Die SubG1 Zellteilung wurde mittels Durchflusscytometrie bestimmt.

[2] = system: IEC6 mausartige Enterozyten; experiment: as above; format: cell-based; settings: 50 µg/ml, 4 Tage
Procedure: as §1

Colo205 Kolonkarzinom = experiment: as above; format: cell-based; settings: 50 µg/ml, 4 Tage
Procedure: as §1

colo205 (Kofon-Karzinom) = experiment: MTT test, triplicate, two-fold dilutions; format: cell-based; settings: for IC50: Homo sapiens
Procedure: (§2) Die Silan wurden in Ethanol aufgelöst und in Zellkulturmedien in Konzentrationen von bis zu 500 µg/ml resuspendiert. Es wurden MTT Tests in dreifacher Ausführung durchgeführt, für welche doppelte Lösungen (7 Schritte) und colo205 (Kofon-Karzinom), BxPC3 (pankreatisches Adenokarzinom) sowie T47D (Brustkrebs) benutzt wurden.

[3] = system: BxPC3 (pankreatisches Adenokarzinom); experiment: MTT test, triplicate, two-fold dilutions; format: cell-based; settings: for IC50: Homo sapiens
Procedure: as §2

T47D (Brustkrebs) = experiment: MTT test, triplicate, two-fold dilutions; format: cell-based; settings: for IC50: Homo sapiens, T47D, read-out: IC50 T47D
Procedure: as §2

A431 Epidermalkarzinom = experiment: MTT assay / EZ4U test, 4 days; format: cell-based; settings: for IC50: Homo sapiens
Procedure: (§3) Die Silane 1, 5, 9, 10, 11, 13, 15, 16 wurden in Ethanol gelöst und in MTT Assays in einer anfänglichen Konzentration von 200 µg/ml (5 Lösungsschritte 200 - 12.5 µg/ml) verwendet. Die Platten wurde für eine Dauer.von 4 Tagen inkubiert und die Entwicklungsfähigkeit mithilfe des EZ4U Test bestimmt. Die IC50 Werte wurden ausgehend von Dosierungs-Reaktions-Linien berechnet Zelllinien: Colo 205 and HT29 - Kolonkarzinom; BxPC3 and MIAPaCa2 - Pankreaskrebs; CRO2B - karzinoid, A431 Epidermalkarzinom; normale Zellen: WI38 - humane embryonale Fibroblasten; NIH3T3 - mausartige Fibroblasten; IEC6 - mausartige Enterozyten.

[4] = system: IEC6 - mausartige Enterozyten; experiment: MTT assay / EZ4U test, 4 days; format: cell-based; settings: for IC50: Rattus norvegicus
Procedure: as §3

Colo 205 - Kolonkarzinom = experiment: MTT assay / EZ4U test, 4 days; format: cell-based; settings: for IC50: Homo sapiens
Procedure: as §3

CRO2B - karzinoid = experiment: MTT assay / EZ4U test, 4 days; format: cell-based; settings: for IC50: read-out: IC50 CR02B
Procedure: as §3

BxPC3 - Pankreaskrebs = experiment: MTT assay / EZ4U test, 4 days; format: cell-based; settings: for IC50: Homo sapiens
Procedure: as §3

[5] = system: NIH3T3 - mausartige Fibroblasten; experiment: MTT assay / EZ4U test, 4 days; format: cell-based; settings: for IC50: Mus musculus
Procedure: as §3

[6] = system: WI38 - humane embryonale Fibroblasten; experiment: MTT assay / EZ4U test, 4 days; format: cell-based; settings: for IC50: Homo sapiens
Procedure: as §3

MIAPaCa2 - Pankreaskrebs = experiment: MTT assay / EZ4U test, 4 days; format: cell-based; settings: for IC50: Homo sapiens
Procedure: as §3

HT29 - Kolonkarzinom = experiment: MTT assay / EZ4U test, 4 days; format: cell-based; settings: for IC50: Homo sapiens
Procedure: as §3

Normale Zellen = experiment: Mean IC50 over all normal cell lines; format: cell-based; settings: for IC50: read-out: IC50 Normale Zellen (Durchschnitt ± SD)
Procedure: as §3
(§4) Mittelwerte-IC50 für alle Krebs- oder normalen Zelllinien: […]

Krebszellen = experiment: Mean IC50 over all cancer cell lines; format: cell-based; settings: for IC50: read-out: IC50 Krebszellen (Durchschnitt ± SD)
Procedure: as §3, §4

Basalzellkarzinome = experiment: Effect on basal cell carcinomas
Maus = experiment: Pharmacological observation in the mouse (central, vegetative and toxic effects, acute toxicity); format: in vivo
From the text: Pharmakologische Untersuchungen an der Maus
Die Verbindungen wurden an der Maus auf zentrale, vegetative und toxische Effekte geprüft. Durch systemische Einzelbeobachtungen sind neben der akuten Toxizität (orienberende letale Dosis, oLD) zentrale und vegetative Wirkungen der Testsubstanzen, insbesondere Effekte auf die Motorik und das Reaktionsvermögen, die Haut- und Rektaltemperatur sowie auf die Pupillenmotorik erfasst worden. Die getesteten Dosierungen betrugen 5 •10^-4, 1 • 10^-3 und 5 • 10^-3 mol/kg Körpergewicht Letale Wirkungen konnten bei keiner der Verbindungen beobachtet werden. Die oLD lag für Di(tetradecanoyloxy)dimethylsilan und Di(octadecanoyloxy)dimethylsilan unter 1 • 10^-3 mol/kg Körpergewicht für alle übrigen Verbindungen unter 5 • 10^-3 mollkg Körpergewicht.

[7] = system: Kälber-Aortenendothelzellinie BKEz-7; experiment: tissue or blood; format: cell-based; settings: for IC50: suspensions, 48 Stunden bei 37°C
From the text: Prüfung auf zytotoxisches Potential an Kälber-Aortenendothelzellinie BKEz-7
Als Marker für eine zytotoxische Wirkung wird bei Zellen der charakterisierten Kälber-Aortenendothelzellinie BKEz-7 die Hemmkonzentration ermittelt, bei der eine 50%-ige Hemmung der Zellproliferation erfolgt (im Vergleich zu Kontrollkulturen ohne Zusatz eines Zellinhibitors). Die resultierende Reduzierung der Zellzahl um 50% wird als IC 50 ausgedrückt. Die getesteten Silanverbindungen wurden als Suspensionen auf die Kulturen gegeben und 48 Stunden bei 37°C inkubiert. Zusätzlich erfolgten morphologische Kontrollen und Vitalitätsbestimmungen mittels dem Neutralrot-Test. Mit Ausnahme des Di(dodecanoyloxy)dimethylsilans standen alle Ergebnisse der morphologischen Untersuchungen in guter Übereinstimmung. […]

[8] = COLO 205, up to 500 µg/ml, read-out: IC50 Colo205
[9] = BXPC-3, up to 500 µg/ml, read-out: IC50 BxPC3
[10] = A-431, 200 - 12.5 µg/ml, 4 Tage, read-out: IC50 A431
[11] = IEC-6, 200 - 12.5 µg/ml, 4 Tage, read-out: IC50 IEC6
[12] = COLO 205, 200 - 12.5 µg/ml, 4 Tage, read-out: IC50 Colo205
[13] = BXPC-3, 200 - 12.5 µg/ml, 4 Tage, read-out: IC50 BxPC3
[14] = NIH3T3, 200 - 12.5 µg/ml, 4 Tage, read-out: IC50 NIH3T3
[15] = WI-38, 200 - 12.5 µg/ml, 4 Tage, read-out: IC50 WI38
[16] = MIA PaCa-2, 200 - 12.5 µg/ml, 4 Tage, read-out: IC50 MlAPaCa2
[17] = HT-29, 200 - 12.5 µg/ml, 4 Tage, read-out: IC50 HT29
[18] = COLO 205, read-out: IC50 Colo205

SMILES	subG1 apoptotische Zellteilung Panc1 [1]	subG1 apoptotische Zellteilung IEC6 [2]	subG1 apoptotische Zellteilung Colo205 (Colo205 Kolonkarzinom)	Wirkung auf Basalzellkarzinome (Basalzellkarzinome)	IC50 (colo205 (Kofon-Karzinom); [8]) [µg/mL]	IC50 [3, 9] [µg/mL]	IC50 (T47D (Brustkrebs); up to 500 µg/ml) [µg/mL]	IC50 (A431 Epidermalkarzinom; [10]) [µg/mL]	IC50 [4, 11] [µg/mL]	IC50 (Colo 205 - Kolonkarzinom; [12]) [µg/mL]	IC50 (CRO2B - karzinoid; 200 - 12.5 µg/ml, 4 Tage) [µg/mL]	IC50 (BxPC3 - Pankreaskrebs; [13]) [µg/mL]	IC50 [5, 14] [µg/mL]	IC50 [6, 15] [µg/mL]	IC50 (MIAPaCa2 - Pankreaskrebs; [16]) [µg/mL]	IC50 (HT29 - Kolonkarzinom; [17]) [µg/mL]	IC50 (Normale Zellen; mean over normal cell lines) [µg/mL]	IC50 (Krebszellen; mean over cancer cell lines) [µg/mL]	zentrale, vegetative und toxische Effekte (Verhaltensänderungen) (Maus; 1•10^-3 mol/kg)	zentrale, vegetative und toxische Effekte (Verhaltensänderungen) (Maus; 5•10^-3 mol/kg)	also measured
CCCCCCCCCC(=O)O[Si](CC)(CC)OC(=O)CCCCCCCCC [Si9, Didecanoyloxy - diethylslan]	42,8 ± 1,6	0,9 ± 0.0	32,1 ± 1,41																		IC50 Colo205 (colo205 (Kofon-Karzinom); up to 500 µg/ml): 60 µg/mL (≈ 140 µM); IC50 BxPC3 ([3]; up to 500 µg/ml): 15 µg/mL (≈ 35 µM); IC50 T47D (T47D (Brustkrebs); up to 500 µg/ml): 40 µg/mL (≈ 93.3 µM); IC50 A431 (A431 Epidermalkarzinom; 200 - 12.5 µg/ml, 4 Tage): 29.4 µg/mL (≈ 68.6 µM); IC50 IEC6 ([4]; 200 - 12.5 µg/ml, 4 Tage): 17.2 µg/mL (≈ 40.1 µM); IC50 Colo205 (Colo 205 - Kolonkarzinom; 200 - 12.5 µg/ml, 4 Tage): 40.6 µg/mL (≈ 94.7 µM); IC50 CR02B (CRO2B - karzinoid; 200 - 12.5 µg/ml, 4 Tage): 31.5 µg/mL (≈ 73.5 µM); IC50 BxPC3 (BxPC3 - Pankreaskrebs; 200 - 12.5 µg/ml, 4 Tage): 40.0 µg/mL (≈ 93.3 µM); IC50 NIH3T3 ([5]; 200 - 12.5 µg/ml, 4 Tage): 34.4 µg/mL (≈ 80.2 µM); IC50 WI38 ([6]; 200 - 12.5 µg/ml, 4 Tage): 37.0 µg/mL (≈ 86.3 µM); IC50 MlAPaCa2 (MIAPaCa2 - Pankreaskrebs; 200 - 12.5 µg/ml, 4 Tage): 37.5 µg/mL (≈ 87.5 µM); IC50 HT29 (HT29 - Kolonkarzinom; 200 - 12.5 µg/ml, 4 Tage): 41.5 µg/mL (≈ 96.8 µM); IC50 Normale Zellen (Durchschnitt ± SD) (Normale Zellen; mean over normal cell lines): 29,5 ± 10,8 µg/ml; IC50 Krebszellen (Durchschnitt ± SD) (Krebszellen; mean over cancer cell lines): 35,6 ± 6,0 µg/ml
CCCCCCCCCCCCCCCCCC(=O)O[Si](OC(=O)CCCCCCCCCCCCCCCCC)(c1ccccc1)c1ccccc1 [Si10, Di (octadecanoyloxy) diphenylsilan]	60,7 ± 0,2	13,4 ± 0,42	43,9 ± 1,41	zeigen eine Wirkung	60 (≈ 80.1 µM)	15 (≈ 20 µM)	15 (≈ 20 µM)	21.9 (≈ 29.2 µM)	17.2 (≈ 23 µM)	30.6 (≈ 40.8 µM)	18.5 (≈ 24.7 µM)	20 (≈ 26.7 µM)	22.2 (≈ 29.6 µM)	21.8 (≈ 29.1 µM)	37 (≈ 49.4 µM)	27.5 (≈ 36.7 µM)	20.4 (≈ 27.2 µM)	21.9 (≈ 29.2 µM)	schwache Ataxie, Hyperaktivität und Piloerektion	schwache Ataxie	zentrale, vegetative und toxische Effekte (Verhaltensänderungen) (Maus; 5•10^-4 mol/kg): keine Verhaltensänderungen; Bedenkliche Toxizität [7]: -; IC50 [7]: 84 µM
CCCCCCCCCCCCCCCCCC(=O)O[Si](CC)(CC)OC(=O)CCCCCCCCCCCCCCCCC [Si13, Di (octadecanoyloxy) diethylsilan]	36,7 ± 0,5		4,8 ± 0,49																		IC50 (colo205 (Kofon-Karzinom); [18]): 125 µg/mL (≈ 191 µM); IC50 ([3]; BXPC-3, read-out: IC50 BxPC3): 10 µg/mL (≈ 15.3 µM); IC50 (T47D (Brustkrebs)): 8 µg/mL (≈ 12.2 µM); IC50 (A431 Epidermalkarzinom; A-431, read-out: IC50 A431): 15.9 µg/mL (≈ 24.3 µM); IC50 ([4]; IEC-6, read-out: IC50 IEC6): 17 µg/mL (≈ 26 µM); IC50 (Colo 205 - Kolonkarzinom; [18]): 47.5 µg/mL (≈ 72.7 µM); IC50 (CRO2B - karzinoid): 17.8 µg/mL (≈ 27.3 µM); IC50 (BxPC3 - Pankreaskrebs; BXPC-3, read-out: IC50 BxPC3): 17.5 µg/mL (≈ 26.8 µM); IC50 ([5]; NIH3T3, read-out: IC50 NIH3T3): 20.6 µg/mL (≈ 31.5 µM); IC50 ([6]; WI-38, read-out: IC50 WI38): 16.5 µg/mL (≈ 25.3 µM); IC50 (MIAPaCa2 - Pankreaskrebs; MIA PaCa-2, read-out: IC50 MlAPaCa2): 110 µg/mL (≈ 168 µM); IC50 (HT29 - Kolonkarzinom; HT-29, read-out: IC50 HT29): 18.3 µg/mL (≈ 28 µM); IC50 (Normale Zellen): 18 µg/mL (≈ 27.6 µM); IC50 (Krebszellen): 17.3 µg/mL (≈ 26.5 µM)
CCCCCCCCCCCCCC(=O)O[Si](OC(=O)CCCCCCCCCCCCC)(c1ccccc1)c1ccccc1 [Si15, Di (tetradecanoyloxy) diphenylsilan]	48,6 ± 0,6	2,9 ± 0,42	37,6 ± 0,21	zeigen eine Wirkung	62 (≈ 97.3 µM)	15 (≈ 23.5 µM)	15 (≈ 23.5 µM)	34.5 (≈ 54.2 µM)	19.1 (≈ 30 µM)	30 (≈ 47.1 µM)	12.5 (≈ 19.6 µM)	33.8 (≈ 53.1 µM)	29.4 (≈ 46.2 µM)	35 (≈ 54.9 µM)	37 (≈ 58.1 µM)	39.4 (≈ 61.8 µM)	27.8 (≈ 43.6 µM)	30 (≈ 47.1 µM)	Ataxie, Hyper-aktivität	schwache Ataxie, Piloerektion	zentrale, vegetative und toxische Effekte (Verhaltensänderungen) (Maus; 5•10^-4 mol/kg): keine Verhaltensänderungen; Bedenkliche Toxizität [7]: -; IC50 [7]: 46 µM
